Data taken from ChEMBL document CHEMBL1201862, “PubChem BioAssay data set” (2004).
Calls of active or inactive are those of the source.

What was measured:
[1] = target: T1, Long-chain-fatty-acid--AMP ligase FadD28 (Mycobacterium tuberculosis, UniProt P9WQ59); assay: Fluorescence polarization aasay to screen for inhibitors that compete for the binding of FadD28 to a bisubstrate Measured in Biochemical System Using Plate Reader - 2147-01_Inhibitor_Dose_CherryPick_Activity.; type: functional, Mycobacterium tuberculosis H37Rv
T1 sequence (P9WQ59 whole entry): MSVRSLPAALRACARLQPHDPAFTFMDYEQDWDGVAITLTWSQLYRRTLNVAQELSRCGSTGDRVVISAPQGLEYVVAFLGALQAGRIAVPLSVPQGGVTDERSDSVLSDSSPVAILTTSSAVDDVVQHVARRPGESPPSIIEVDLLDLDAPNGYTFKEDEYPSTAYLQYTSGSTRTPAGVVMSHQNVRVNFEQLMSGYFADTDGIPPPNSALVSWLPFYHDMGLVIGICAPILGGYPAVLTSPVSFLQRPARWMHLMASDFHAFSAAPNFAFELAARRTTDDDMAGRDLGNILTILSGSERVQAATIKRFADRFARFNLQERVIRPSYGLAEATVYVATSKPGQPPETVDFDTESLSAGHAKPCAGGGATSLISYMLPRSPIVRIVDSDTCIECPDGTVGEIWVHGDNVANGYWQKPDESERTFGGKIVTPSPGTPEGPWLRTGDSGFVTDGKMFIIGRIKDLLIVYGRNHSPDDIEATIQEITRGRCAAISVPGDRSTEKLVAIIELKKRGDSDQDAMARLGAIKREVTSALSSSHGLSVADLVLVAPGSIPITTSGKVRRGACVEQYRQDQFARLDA

[2] = target: T2, Sentrin-specific protease 1 (Homo sapiens, UniProt Q9P0U3); assay: SENP1 catalytic domain blockers, concentration series – biochemical, kinetic FRET, dose response (AID 651697); type: functional; conditions: read-out: IC50_Mean
T2 sequence (Q9P0U3 whole entry): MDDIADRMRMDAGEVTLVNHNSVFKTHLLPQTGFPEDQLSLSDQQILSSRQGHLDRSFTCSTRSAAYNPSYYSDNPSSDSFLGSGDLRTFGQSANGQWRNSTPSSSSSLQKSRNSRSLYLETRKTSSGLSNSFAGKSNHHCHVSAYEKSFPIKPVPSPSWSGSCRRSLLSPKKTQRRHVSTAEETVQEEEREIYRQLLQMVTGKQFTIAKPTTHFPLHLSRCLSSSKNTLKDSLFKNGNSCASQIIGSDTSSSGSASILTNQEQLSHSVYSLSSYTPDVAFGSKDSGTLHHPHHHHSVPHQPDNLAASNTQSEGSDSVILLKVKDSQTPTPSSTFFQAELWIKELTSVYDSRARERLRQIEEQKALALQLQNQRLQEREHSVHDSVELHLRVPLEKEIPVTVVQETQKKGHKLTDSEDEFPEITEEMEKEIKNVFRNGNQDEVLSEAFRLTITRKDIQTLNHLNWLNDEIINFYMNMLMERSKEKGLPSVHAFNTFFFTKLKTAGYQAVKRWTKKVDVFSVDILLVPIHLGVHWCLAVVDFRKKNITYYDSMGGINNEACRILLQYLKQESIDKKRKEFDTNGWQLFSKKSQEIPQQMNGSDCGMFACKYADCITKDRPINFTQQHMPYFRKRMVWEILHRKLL

[3] = target: T2, Sentrin-specific protease 1; assay: Dose response confirmation of small molecule inhibitors of the catalytic domain of the SUMO protease, SENP1 in a FRET assay.; type: functional; conditions: read-out: IC50_Mean
[4] = target: T3, Carboxy-terminal domain RNA polymerase II polypeptide A small phosphatase 1 (Homo sapiens, UniProt Q9GZU7); assay: CTDSP1 inhibitors, concentration-response, biochemical, absorbance readout, ultra-high-throughput screen actives (AID 540297); type: functional
T3 sequence (Q9GZU7 whole entry): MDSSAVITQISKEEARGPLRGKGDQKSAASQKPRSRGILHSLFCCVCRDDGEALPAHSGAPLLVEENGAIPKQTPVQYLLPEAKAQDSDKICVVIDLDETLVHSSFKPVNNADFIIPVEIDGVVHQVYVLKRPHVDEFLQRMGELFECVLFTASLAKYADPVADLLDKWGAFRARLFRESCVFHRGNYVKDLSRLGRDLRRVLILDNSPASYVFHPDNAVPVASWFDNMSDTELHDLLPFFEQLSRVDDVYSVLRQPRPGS

[5] = target: T4, Leucine aminopeptidase (Plasmodium falciparum 3D7, UniProt Q8IL11); assay: P. falciparum M17LAP inhibitors, primary screen, biochemical, fluorogenic H-Leu-NHMec substrate, 1536-well (AID 1619); type: functional
T4 sequence (Q8IL11 whole entry): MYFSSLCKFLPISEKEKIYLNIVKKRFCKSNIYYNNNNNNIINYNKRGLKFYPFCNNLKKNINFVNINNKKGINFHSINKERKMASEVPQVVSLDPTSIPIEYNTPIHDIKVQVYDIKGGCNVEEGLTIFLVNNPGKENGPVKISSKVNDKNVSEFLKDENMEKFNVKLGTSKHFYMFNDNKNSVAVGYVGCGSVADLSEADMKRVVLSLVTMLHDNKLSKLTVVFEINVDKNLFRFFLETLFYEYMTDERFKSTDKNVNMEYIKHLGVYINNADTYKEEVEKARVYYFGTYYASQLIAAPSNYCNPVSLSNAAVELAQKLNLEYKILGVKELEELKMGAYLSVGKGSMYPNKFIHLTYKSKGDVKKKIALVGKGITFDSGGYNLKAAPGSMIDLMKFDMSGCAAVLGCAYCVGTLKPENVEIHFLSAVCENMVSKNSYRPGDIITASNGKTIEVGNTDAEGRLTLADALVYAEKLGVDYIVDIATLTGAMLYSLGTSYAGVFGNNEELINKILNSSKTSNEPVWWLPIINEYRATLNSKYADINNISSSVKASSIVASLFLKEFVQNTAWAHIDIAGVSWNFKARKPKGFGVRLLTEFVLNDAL

[6] = OVCAR8 cell viability loss – plate reader, dry powder samples, PAX8 project, dose response (AID 743197); type: functional, cell-based; conditions: OVCAR-8
[7] = target: Paired box protein Pax-8 (Homo sapiens, UniProt Q06710); assay: PAX8 transcriptional activity inhibition in RMG-I – RMG-I cells, luciferase, cherry-pick, dose response (AID 687027); type: functional, cell-based;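 also: luciferase reporter driven by Pax8 target thyroperoxidase promoter measured by SteadyGlo luminescence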
Chain of Paired box protein Pax-8 (Q06710 whole entry): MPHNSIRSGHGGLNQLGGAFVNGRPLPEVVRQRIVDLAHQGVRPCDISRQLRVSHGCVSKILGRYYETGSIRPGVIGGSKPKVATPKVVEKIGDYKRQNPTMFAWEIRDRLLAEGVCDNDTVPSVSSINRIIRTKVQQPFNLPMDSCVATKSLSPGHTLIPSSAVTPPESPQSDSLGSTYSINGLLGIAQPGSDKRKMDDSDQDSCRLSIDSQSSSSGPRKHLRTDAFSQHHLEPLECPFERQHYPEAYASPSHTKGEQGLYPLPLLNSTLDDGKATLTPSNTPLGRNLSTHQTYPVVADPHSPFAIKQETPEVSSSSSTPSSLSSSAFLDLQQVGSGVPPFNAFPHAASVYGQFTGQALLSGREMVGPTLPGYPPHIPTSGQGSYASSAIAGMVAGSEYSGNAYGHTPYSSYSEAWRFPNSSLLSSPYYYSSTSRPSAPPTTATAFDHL

With `O=C(COc1ncnc2c1cnn2-c1ccccc1)Nc1ccc(S(=O)(=O)N2CCCCC2)cc1` the AC50 [1] was > 100 µM (inactive).
For `CCc1ccccc1NC(=O)CN(C)C(=O)CSc1nnc(Nc2cccc(C)c2C)s1`, the AC50 [1] was 4.79 µM (active).
In the case of `COc1ccc(/C=C2\CCCc3c2nc2ccc(C)cc2c3C(=O)O)cc1O`, the AC50 [1] is reported as 79.3 µM (active).
For `COc1cc(O)c(C=Nc2ccccc2NS(=O)(=O)c2ccc(C)cc2)c(OC)c1`, the IC50 [2] was 16.1 µM (active) and the IC50 [3] was 15.2 µM (active).
For `O=C(O)c1ccc(/C=N/NC(=O)c2cc(-c3ccc4c5c(cccc35)CC4)[nH]n2)cc1`, the IC50 [4] was 4.31 µM (active) and the IC50 [5] was 26.8 µM (active).
For `CCOc1cc(/C=C2\S/C(=N\c3ccccc3)N(c3ccccc3)C2=O)ccc1OCC(=O)O`, the IC50 [5] was 31.3 µM (active).
In the case of `C[C@@H]1CCCCO[C@@H](CN(C)Cc2ccc(Cl)c(Cl)c2)[C@H](C)CN([C@H](C)CO)C(=O)c2cc(NC(=O)Nc3ccc(F)cc3)ccc2O1`, the AC50 [6] is reported as > 70 µM (inactive) and the AC50 [7] is reported as 5.06 µM (active).
